Experimental data reported in patent US5401647A, “Method of preparing Limulus amoebocyte lysate” (Seikagaku Kogyo Kabushiki Kaisha (Seikagaku Corporation), priority 1990, dated 1995).

Molecular target: T1, Limulus amoebocyte lysate factor G (Tachypleus tridentatus, UniProt Q27082)
T1 construct: Prepared from Japanese horseshoe crab, T. tridentatus; from tissue; host or cells: amoebocyte (hemocyte) lysate of the Japanese horseshoe crab T. tridentatus, factor G fraction
T1 sequence (Q27082 20-673): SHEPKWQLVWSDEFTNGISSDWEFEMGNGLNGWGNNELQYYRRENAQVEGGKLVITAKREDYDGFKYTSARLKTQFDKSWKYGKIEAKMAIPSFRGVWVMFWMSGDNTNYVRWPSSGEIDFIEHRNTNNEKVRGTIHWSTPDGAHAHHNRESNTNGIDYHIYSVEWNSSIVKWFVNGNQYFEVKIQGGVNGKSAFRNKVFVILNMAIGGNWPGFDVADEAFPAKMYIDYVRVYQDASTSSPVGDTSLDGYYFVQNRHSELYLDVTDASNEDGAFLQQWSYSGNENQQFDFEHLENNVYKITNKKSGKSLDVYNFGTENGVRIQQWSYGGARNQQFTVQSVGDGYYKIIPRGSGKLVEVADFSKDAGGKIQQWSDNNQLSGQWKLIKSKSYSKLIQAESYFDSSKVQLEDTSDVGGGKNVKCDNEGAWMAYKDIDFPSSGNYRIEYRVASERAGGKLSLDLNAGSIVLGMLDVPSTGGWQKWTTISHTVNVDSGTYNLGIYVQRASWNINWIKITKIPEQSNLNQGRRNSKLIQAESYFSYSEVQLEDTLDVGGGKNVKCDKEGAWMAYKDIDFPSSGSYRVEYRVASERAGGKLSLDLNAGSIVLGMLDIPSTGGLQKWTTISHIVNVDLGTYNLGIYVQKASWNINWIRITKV
T1 sequence (Q27083 32-309 partner): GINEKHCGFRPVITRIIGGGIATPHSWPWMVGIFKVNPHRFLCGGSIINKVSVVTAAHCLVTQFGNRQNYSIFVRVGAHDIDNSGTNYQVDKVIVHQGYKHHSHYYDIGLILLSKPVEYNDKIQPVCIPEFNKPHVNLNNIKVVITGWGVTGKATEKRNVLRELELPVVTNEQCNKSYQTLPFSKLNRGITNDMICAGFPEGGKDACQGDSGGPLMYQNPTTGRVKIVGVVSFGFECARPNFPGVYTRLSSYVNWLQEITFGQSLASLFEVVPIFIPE
Experiment: Activation titer determination method of factor G activation inhibiting substance (GI)
Format: biochemical, T. tridentatus
Conditions: 10 pg GA (No. 106); 37° C., 30 minutes; GI amount causing 100% inhibition of factor G activation = 100 units
Procedure: The factor G activation inhibitory titer was measured according to the following activation titer determination method of factor G activation inhibiting substance and represented as units per mg. Activation titer determination method of factor G activation inhibiting substance (hereinafter, sometimes abbreviated as GI)
A 200 μl portion of a reaction mixture has the following composition. […]
After incubating the above-described reaction mixture at 37° C. for 30 minutes, 0.5 ml each of 0.04% sodium nitrite (0.48M HCl solution), 0.3% ammonium sulfamate and 0.07% N-1-naphthylethylenediamine dihydrochloride was added to the reaction mixture to effect coloration by diazo-coupling. The amount of released pNA was determined by measuring an absorbance at 545 nm (A545). GI activity was calculated according to the following equation; [formula]
Under these conditions, the GI amount which causes 100% inhibition of an activation of factor G by GA is defined as 100 units.
(Note 1) Water-insoluble samples are dissolved in 0.3M NaOH and neutralized with an equal volume of 0.3M HCl.
(Note 2) GPC fractionation-purified product of the curdian sonicated product prepared in the above-described Preparation Example 5 (Table-2, No. 106, molecular weight 216,000).
(Note 3) Prepared from Japanese horseshoe crab, T. tridentatus according to the article [T. Obayasi et al., Clin. Chim. Acta., 149, 55-65 (1985)].

Compound | Factor G Activation Inhibitory Titer
OC[C@H]1O[C@@H](O[C@@H]2[C@@H](O)[C@H](O[C@@H]3[C@@H](O)[C@H](O[C@@H]4[C@@H](O)[C@H](O[C@@H]5[C@@H](O)[C@H](O[C@H]6[C@H](O)[C@@H](CO)OC(O)[C@@H]6O)O[C@H](CO)[C@H]5O)O[C@H](CO)[C@H]4O)O[C@H](CO)[C@H]3O)O[C@H](CO)[C@H]2O)[C@H](O)[C@@H](O)[C@@H]1O (some centres unmarked) [compound 9, Laminarihexaose] | 55,000 unit/mg
OC[C@H]1O[C@@H](O[C@@H]2[C@@H](O)[C@H](O[C@@H]3[C@@H](O)[C@H](O[C@@H]4[C@@H](O)[C@H](O[C@@H]5[C@@H](O)[C@H](O[C@@H]6[C@@H](O)[C@H](O[C@H]7[C@H](O)[C@@H](CO)OC(O)[C@@H]7O)O[C@H](CO)[C@H]6O)O[C@H](CO)[C@H]5O)O[C@H](CO)[C@H]4O)O[C@H](CO)[C@H]3O)O[C@H](CO)[C@H]2O)[C@H](O)[C@@H](O)[C@@H]1O (some centres unmarked) [compound 10, Laminariheptaose] | 103,000 unit/mg
Partially carboxymethylated (1→3)-β-D-glucan (DS = 0.03) GPC fraction 2 [compound 40] | 91,200 unit/mg
Partially carboxymethylated (1→3)-β-D-glucan (DS = 0.03) GPC fraction 1 [compound 39] | 117,000 unit/mg
OC[C@H]1O[C@@H](O[C@H]2[C@H](O)[C@@H](CO)OC(O)[C@@H]2O)[C@H](O)[C@@H](O)[C@@H]1O (some centres unmarked) [compound 5, Laminaribiose] | 214 unit/mg
Partially carboxymethylated (1→3)-β-D-glucan (DS = 0.03) GPC fraction 3 [Sample No. 41] | 80,000 unit/mg
Partially methylated (1→3)-β-D-glucan [compound 43] | 93,300 unit/mg
Partially sulfated laminaran [compound 44] | 117,000 unit/mg
OC[C@H]1O[C@@H](O[C@@H]2[C@@H](O)[C@H](O[C@@H]3[C@@H](O)[C@H](O[C@@H]4[C@@H](O)[C@H](O[C@H]5[C@H](O)[C@@H](CO)OC(O)[C@@H]5O)O[C@H](CO)[C@H]4O)O[C@H](CO)[C@H]3O)O[C@H](CO)[C@H]2O)[C@H](O)[C@@H](O)[C@@H]1O (some centres unmarked) [compound 8, Laminaripentaose] | 39,800 unit/mg
OC[C@H]1O[C@@H](O[C@@H]2[C@@H](O)[C@H](O[C@H]3[C@H](O)[C@@H](CO)OC(O)[C@@H]3O)O[C@H](CO)[C@H]2O)[C@H](O)[C@@H](O)[C@@H]1O (some centres unmarked) [compound 6, Laminaritriose] | 4,670 unit/mg
Partially carboxymethylated (1→3)-β-D-glucan (DS = 1.20) [compound 107] | < 100 unit/mg
Partially carboxymethylated laminaran [compound 42] | 3,630,000 unit/mg
OC[C@H]1O[C@@H](O[C@@H]2[C@@H](O)[C@H](O[C@@H]3[C@@H](O)[C@H](O[C@H]4[C@H](O)[C@@H](CO)OC(O)[C@@H]4O)O[C@H](CO)[C@H]3O)O[C@H](CO)[C@H]2O)[C@H](O)[C@@H](O)[C@@H]1O (some centres unmarked) [compound 7, Laminaritetraose] | 20,000 unit/mg
OC[C@H]1OC(O)[C@H](O)[C@@H](O)[C@@H]1O (some centres unmarked) [compound 108, Glucose] | < 100 unit/mg
